Measurements reported in ChEMBL document CHEMBL6153103, “Novel Bioorthogonal Theranostic Scaffold Enables on-Target Drug Release and Real Time Monitoring In Vivo” (J Med Chem, 2025).
The source made the active and inactive calls. The rule behind the calls is not given here.

How the values were obtained:
HeLa [1] = assay: Cytotoxicity against human HeLa cells assessed as inhibition of cell proliferation incubated for 72 hrs by CCK-8 assay; assay type: functional, cell-based
HeLa [2] = assay: Cytotoxicity against human HeLa cells assessed as inhibition of cell proliferation incubated for 72 hrs 15 uM of 4-(6-methyl-1,2,4,5-tetrazin-3-yl)benzyl 3-(2-hydroxyethoxy)-2,3-dihydrophenanthro[9,10-b][1,4]dioxine-7-carboxylate by CCK-8 assay; assay type: functional, cell-based
A549 [3] = assay: Cytotoxicity against human A549 cells assessed as inhibition of cell proliferation incubated for 72 hrs in presence of 15 uM 4-(6-methyl-1,2,4,5-tetrazin-3-yl)benzyl 3-(2-hydroxyethoxy)-2,3-dihydrophenanthro[9,10-b][1,4]dioxine-7-carboxylate by CCK-8 assay; assay type: functional, cell-based; details: A549, 72 h
[4] = Drug uptake in human HEK293T cells assessed as increase in blue fluorescence intensity at 100 uM incubated for 1 hr by confocal fluorescence microscopic analysis; assay type: ADME, cell-based; details: hek-293t
[5] = Prodrug activation in human A549 cells xenografted in BALB/c nude mouse assessed as blue fluorescence intensity in tumor at 5 mg/kg, ip administered for 1 hr by confocal microscopic analysis; assay type: organism-based; details: in vivo
[6] = Prodrug release in human A549 cells xenografted in BALB/c nude mouse assessed as DOX release by measuring change in green fluorescence intensity in tumor at 5 mg/kg, ip administered for 1 hr by DAPI staining based confocal microscopic analysis; assay type: ADME, organism-based; details: in vivo
A549 [7] = assay: Cytotoxicity against human A549 cells assessed as inhibition of cell proliferation incubated for 72 hrs in presence of 10 uM 4-(6-methyl-1,2,4,5-tetrazin-3-yl)benzyl 3-(2-hydroxyethoxy)-2,3-dihydrophenanthro[9,10-b][1,4]dioxine-7-carboxylate by CCK-8 assay; assay type: functional, cell-based; details: A549, 72 h
HeLa [8] = assay: Cytotoxicity against human HeLa cells assessed as inhibition of cell proliferation incubated for 72 hrs 15 uM of (4-((2-((10-(((4-(6-methyl-1,2,4,5-tetrazin-3-yl)benzyl)oxy)carbonyl)-2,3-dihydrophenanthro[9,10-b][1,4]dioxin-2-yl)oxy)ethoxy)carbonyl)phenyl)boronic acid by CCK-8 assay; assay type: functional, cell-based
A549 [9] = assay: Cytotoxicity against human A549 cells assessed as inhibition of cell proliferation incubated for 72 hrs by CCK-8 assay; assay type: functional, cell-based; details: A549, 72 h
[10] = Cytotoxicity against human HEK293T cells assessed as inhibition of cell proliferation incubated for 72 hrs 15 uM of 4-(6-methyl-1,2,4,5-tetrazin-3-yl)benzyl 3-(2-hydroxyethoxy)-2,3-dihydrophenanthro[9,10-b][1,4]dioxine-7-carboxylate by CCK-8 assay; assay type: toxicity, cell-based, HEK-293T
[11] = Prodrug release in human A549 cells assessed as DOX release by measuring increase in fluorescence intensity at 100 uM measured after 2 hrs by confocal microscopy; assay type: ADME, cell-based; details: a549, 2 h
[12] = Cytotoxicity against human HEK293T cells assessed as inhibition of cell proliferation incubated for 72 hrs 15 uM of (4-((2-((10-(((4-(6-methyl-1,2,4,5-tetrazin-3-yl)benzyl)oxy)carbonyl)-2,3-dihydrophenanthro[9,10-b][1,4]dioxin-2-yl)oxy)ethoxy)carbonyl)phenyl)boronic acid by CCK-8 assay; assay type: toxicity, cell-based, HEK-293T
[13] = Drug uptake in human HeLa cells assessed as increase in blue fluorescence intensity at 100 uM incubated for 1 hr by confocal fluorescence microscopic analysis; assay type: ADME, cell-based
[14] = Cytotoxicity against human HEK293T cells assessed as inhibition of cell proliferation incubated for 72 hrs by CCK-8 assay; assay type: toxicity, cell-based, HEK-293T
A549 [15] = assay: Cytotoxicity against human A549 cells assessed as inhibition of cell proliferation upto 20 uM incubated for 72 hrs by CCK-8 assay; assay type: functional, cell-based
[16] = Prodrug release in human A549 cells assessed as DOX release by measuring increase in fluorescence intensity at 50 uM measured after 2 hrs by confocal microscopy; assay type: ADME, cell-based; details: a549, 2 h
A549 [17] = assay: Cytotoxicity against human A549 cells assessed as cell viability incubated for 72 hrs by CCK-8 assay; assay type: functional, cell-based; details: A549, 72 h
A549 [18] = assay: Cytotoxicity against human A549 cells assessed as inhibition of cell proliferation incubated for 72 hrs in presence of 60 uM 4-(6-methyl-1,2,4,5-tetrazin-3-yl)benzyl 3-(2-hydroxyethoxy)-2,3-dihydrophenanthro[9,10-b][1,4]dioxine-7-carboxylate by CCK-8 assay; assay type: functional, cell-based; details: A549, 72 h
A549 [19] = assay: Cytotoxicity against human A549 cells assessed as inhibition of cell proliferation incubated for 72 hrs in presence of 80 uM 4-(6-methyl-1,2,4,5-tetrazin-3-yl)benzyl 3-(2-hydroxyethoxy)-2,3-dihydrophenanthro[9,10-b][1,4]dioxine-7-carboxylate by CCK-8 assay; assay type: functional, cell-based; details: A549, 72 h

COc1cccc2c1C(=O)c1c(O)c3c(c(O)c1C2=O)C[C@@](O)(C(=O)CO)C[C@@H]3O[C@H]1C[C@H](N)[C@H](O)[C@H](C)O1 [DOXORUBICIN]
IC50 (HeLa [1]): 14 nM

COc1cccc2c1C(=O)c1c(O)c3c(c(O)c1C2=O)C[C@@](O)(C(=O)CO)C[C@@H]3O[C@H]1C[C@H](NC(=O)OC2/C=C/CCCCC2)[C@H](O)[C@H](C)O1 (some centres undefined)
IC50 (HeLa [2]): 59 nM | IC50 (A549 [3]): 58 nM | Drug uptake [4]: Not_active | IC50 (HeLa [1]): 989 nM | Drug metabolism [5]: metabolite_notdetected | Drug metabolism [6]: metabolite_detected | IC50 (A549 [7]): 67 nM | IC50 (HeLa [8]): 30 nM | IC50 (A549 [9]): 537 nM | IC50 at 72 h [10]: 126 nM | Drug metabolism [11]: metabolite_detected | IC50 at 72 h [12]: 145 nM | Drug uptake [13]: Not_active | IC50 at 72 h [14]: 1150 nM

Cc1nnc(-c2ccc(COC(=O)c3ccc4c5c(c6ccccc6c4c3)OCC(OCCO)O5)cc2)nn1 (centres undefined)
Drug uptake [4]: Not_active | Activity (A549 [15]): Active | Drug metabolism [16]: metabolite_detected | EC50 (A549 [17]): > 50000 nM | Drug uptake [13]: Not_active

[C-]#[N+]CCCOC(=O)N1[C@H]2[C@@H]1CN1C3=C(C(=O)C(N)=C(C)C3=O)[C@@H](COC(N)=O)[C@@]21OC
IC50 (A549 [18]): 239 nM | IC50 (A549 [7]): 313 nM | IC50 (A549 [9]): 359 nM | IC50 (A549 [19]): 239 nM

Cc1nnc(-c2ccc(COC(=O)c3ccc4c5c(c6ccccc6c4c3)OCC(OCCOC(=O)c3ccc(B(O)O)cc3)O5)cc2)nn1 (centres undefined)
Drug metabolism [5]: metabolite_notdetected | Drug metabolism [6]: metabolite_detected

CO[C@@]12[C@H](COC(N)=O)C3=C(C(=O)C(C)=C(N)C3=O)N1C[C@@H]1N[C@@H]12 [MITOMYCIN]
IC50 (A549 [9]): 30 nM

Cc1nnc(-c2ccc(COC(=O)c3ccc4c5c(c6ccccc6c4c3)OCC(OCCO)O5)cc2)c2c1CCCCCC2 (centres undefined)
Activity (A549 [15]): Active | EC50 (A549 [17]): > 50000 nM
